Values joined by “and” are separate entries in the source; they are usually repeats but may differ in a detail not shown here. Equal values may be shown once.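 Growth conditions: 96-well plates. Treatment: test compound, 48 hours, 5 concentrations. Analysis: linear interpolation between bracketing concentrations; unreached endpoints set to highest concentration. The concentration for 50% growth inhibition is given as GI50. The concentration for full growth arrest is given as TGI.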
Legend:
Assay in all cases: NCI anticancer screen, dose series, 48 h
HT29 colon = tested on: HT29 colon
SR leukemia = tested on: SR leukemia
RXF 393 renal = tested on: RXF 393 renal
K-562 leukemia = tested on: K-562 leukemia
MDA-MB-231 breast = tested on: MDA-MB-231 breast
786-0 renal = tested on: 786-0 renal
MCF7 breast = tested on: MCF7 breast
RPMI-8226 leukemia = tested on: RPMI-8226 leukemia
UO-31 renal = tested on: UO-31 renal
SF-268 CNS = tested on: SF-268 CNS

O=C1c2cccc3cccc(c23)C(=O)N1CCCNOCCONCCCN1C(=O)c2cccc3cccc(c23)C1=O
TGI (HT29 colon): > 100 µM
TGI (SR leukemia): > 100 µM
TGI (RXF 393 renal): > 100 µM
TGI (K-562 leukemia): > 100 µM
TGI (MDA-MB-231 breast): > 100 µM
TGI (786-0 renal): > 100 µM
TGI (MCF7 breast): > 100 µM
TGI (RPMI-8226 leukemia): 74.4 µM
TGI (UO-31 renal): > 100 µM
TGI (SF-268 CNS): > 100 µM

CN(C)CCNc1ncnc2nc(-c3ccc4ccccc4c3)[nH]c12
TGI (HT29 colon): > 100 µM
TGI (SR leukemia): > 100 µM
TGI (RXF 393 renal): > 100 µM
TGI (K-562 leukemia): > 100 µM
TGI (MDA-MB-231 breast): > 100 µM
TGI (786-0 renal): > 100 µM
TGI (MCF7 breast): > 100 µM
TGI (RPMI-8226 leukemia): > 100 µM
TGI (UO-31 renal): > 100 µM
TGI (SF-268 CNS): > 100 µM

CCOC(=O)C(/C=N\C(=S)Nc1ccc(OCC)cc1)=C(/O)c1ccccc1
TGI (HT29 colon): > 100 µM
TGI (SR leukemia): > 100 µM
TGI (RXF 393 renal): > 100 µM
TGI (K-562 leukemia): > 100 µM
TGI (MDA-MB-231 breast): > 100 µM
TGI (786-0 renal): > 100 µM
TGI (MCF7 breast): > 100 µM
TGI (RPMI-8226 leukemia): > 100 µM
TGI (SF-268 CNS): > 100 µM

c1ccc2c(c1)nc1n2CCSC1
TGI (HT29 colon): > 100 µM
TGI (SR leukemia): > 100 µM
TGI (RXF 393 renal): > 100 µM
TGI (K-562 leukemia): > 100 µM
TGI (MDA-MB-231 breast): > 100 µM
TGI (786-0 renal): > 100 µM
TGI (MCF7 breast): > 100 µM
TGI (RPMI-8226 leukemia): > 100 µM
TGI (UO-31 renal): > 100 µM
TGI (SF-268 CNS): > 100 µM

COc1cc(/C=C2\CCC(C)C3=C2NC(=S)NC3c2cc(OC)c(OC)c(OC)c2)cc(OC)c1OC (configuration not stated)
TGI (HT29 colon): > 100 µM
TGI (SR leukemia): > 100 µM
TGI (RXF 393 renal): > 100 µM
TGI (K-562 leukemia): > 100 µM
TGI (MDA-MB-231 breast): > 100 µM
TGI (786-0 renal): > 100 µM
TGI (MCF7 breast): > 100 µM
TGI (RPMI-8226 leukemia): 68.4 µM
TGI (UO-31 renal): 66 µM
TGI (SF-268 CNS): > 100 µM

CCc1c(C)c(C#N)c(=S)n(C2OC(CO)C(O)C(O)C2O)c1C (configuration not stated)
TGI (HT29 colon): > 100 µM
TGI (SR leukemia): > 100 µM
TGI (RXF 393 renal): > 100 µM
TGI (K-562 leukemia): > 100 µM
TGI (MDA-MB-231 breast): > 100 µM
TGI (786-0 renal): > 100 µM
TGI (MCF7 breast): > 100 µM
TGI (UO-31 renal): > 100 µM
TGI (SF-268 CNS): > 100 µM

COC(=O)[C@@]12CCCC(=O)[C@@H]1[C@H]1CCCC[C@H]12
TGI (HT29 colon): > 100 µM
TGI (SR leukemia): > 100 µM
TGI (RXF 393 renal): > 100 µM
TGI (K-562 leukemia): > 100 µM
TGI (MDA-MB-231 breast): > 100 µM
TGI (786-0 renal): > 100 µM
TGI (MCF7 breast): > 100 µM
TGI (RPMI-8226 leukemia): > 100 µM
TGI (UO-31 renal): > 100 µM
TGI (SF-268 CNS): > 100 µM

Cc1cc(=O)oc2cc(O)ccc12
TGI (HT29 colon): > 100 µM
TGI (SR leukemia): > 100 µM
TGI (RXF 393 renal): > 100 µM
TGI (K-562 leukemia): > 100 µM
TGI (MDA-MB-231 breast): > 100 µM
TGI (786-0 renal): > 100 µM
TGI (MCF7 breast): > 100 µM
TGI (RPMI-8226 leukemia): > 100 µM
TGI (UO-31 renal): > 100 µM
TGI (SF-268 CNS): > 100 µM

COc1cc(C2S/C(=C/c3ccccc3)C(=O)N2c2ccc(Cl)c(Cl)c2)cc(OC)c1OC (configuration not stated)
TGI (HT29 colon): > 100 µM
TGI (SR leukemia): > 100 µM
TGI (RXF 393 renal): > 100 µM
TGI (K-562 leukemia): > 100 µM
TGI (MDA-MB-231 breast): > 100 µM
TGI (786-0 renal): > 100 µM
TGI (MCF7 breast): > 87.7 µM
TGI (RPMI-8226 leukemia): > 100 µM
TGI (UO-31 renal): > 100 µM
TGI (SF-268 CNS): > 100 µM

COc1c(C)c(OC)c2c(c1O)[C@@H]1[C@@H]3Cc4c(OC)c(C)c(OC)c(O)c4[C@H](CNC(=O)c4cnc5ccccc5n4)N3[C@@H](C#N)[C@H](C2)N1C
TGI (SR leukemia): 0.0014 µM
TGI (RXF 393 renal): > 0.0368 µM
TGI (K-562 leukemia): 0.018 µM
TGI (MDA-MB-231 breast): 0.032 µM
TGI (786-0 renal): > 0.1 µM
TGI (MCF7 breast): > 0.1 µM
TGI (UO-31 renal): > 0.0423 µM
TGI (SF-268 CNS): > 0.1 µM

COc1ccc(C(=O)N2c3ccccc3Sc3ccccc32)c(C(F)(F)F)c1
GI50 (HT29 colon): 0.362 µM
TGI (HT29 colon): > 100 µM
GI50 (SR leukemia): 0.312 µM
TGI (SR leukemia): 76.9 µM
GI50 (RXF 393 renal): 0.362 µM
TGI (RXF 393 renal): > 100 µM
GI50 (K-562 leukemia): 0.349 µM
TGI (K-562 leukemia): > 100 µM
GI50 (MDA-MB-231 breast): 1.16 µM
TGI (MDA-MB-231 breast): 92.2 µM
GI50 (MCF7 breast): 0.411 µM
TGI (MCF7 breast): > 100 µM
GI50 (RPMI-8226 leukemia): 0.595 µM
TGI (RPMI-8226 leukemia): > 100 µM
GI50 (UO-31 renal): 2.62 µM
TGI (UO-31 renal): > 100 µM
GI50 (SF-268 CNS): 3.04 µM
TGI (SF-268 CNS): > 100 µM

CC1(C)Oc2ccc(NC(=O)CCC(N)C(=O)O)cc2O1 (configuration not stated)
TGI (HT29 colon): > 100 µM
TGI (SR leukemia): > 100 µM
TGI (RXF 393 renal): > 100 µM
TGI (K-562 leukemia): > 100 µM
TGI (MDA-MB-231 breast): > 100 µM
TGI (786-0 renal): > 100 µM
TGI (MCF7 breast): > 100 µM
TGI (RPMI-8226 leukemia): > 100 µM
TGI (UO-31 renal): > 100 µM

CC(=O)c1cc2ccccc2n(O)c1=N
TGI (HT29 colon): > 100 µM
TGI (SR leukemia): > 100 µM
TGI (RXF 393 renal): > 100 µM
TGI (MDA-MB-231 breast): > 100 µM
TGI (786-0 renal): > 100 µM
TGI (MCF7 breast): > 100 µM
TGI (SF-268 CNS): > 100 µM

O=c1[nH]c(N/N=C\C(O)C(O)C(O)CO)nc2ccccc12 (configuration not stated)
TGI (HT29 colon): > 100 µM
TGI (SR leukemia): > 100 µM
TGI (K-562 leukemia): > 100 µM
GI50 (MDA-MB-231 breast): > 100 µM and 47.7 µM
TGI (MDA-MB-231 breast): > 100 µM
TGI (786-0 renal): > 100 µM
TGI (MCF7 breast): > 100 µM
TGI (RPMI-8226 leukemia): > 100 µM
TGI (UO-31 renal): > 100 µM
TGI (SF-268 CNS): > 100 µM

CCCCOCn1c(=O)[nH]c(=O)c2cc(Br)ccc21
TGI (HT29 colon): > 100 µM
TGI (SR leukemia): > 100 µM
TGI (RXF 393 renal): > 100 µM
TGI (K-562 leukemia): > 100 µM
TGI (MDA-MB-231 breast): > 100 µM
TGI (786-0 renal): > 100 µM
TGI (MCF7 breast): > 100 µM
TGI (UO-31 renal): 52.6 µM

COC(=O)C1(Cc2ccccc2)Cc2ccccc2C1
TGI (HT29 colon): 41.7 µM
TGI (SR leukemia): > 100 µM
TGI (K-562 leukemia): 52.3 µM
TGI (MDA-MB-231 breast): > 100 µM
TGI (786-0 renal): 81.9 µM
TGI (MCF7 breast): > 100 µM
TGI (RPMI-8226 leukemia): 57.9 µM
TGI (UO-31 renal): 55.9 µM
TGI (SF-268 CNS): > 100 µM
